IC50 and inhibition data for three molecules are collected here from ChEMBL document CHEMBL4052677, “A small-molecule screen identifies the antitrypanosomal agent suramin and analogues NF023 and NF449 as inhibitors of STAT5a/b” (Bioorg Med Chem Lett, 2017).

Assay [1] has as its target T1, Signal transducer and activator of transcription 5B (Homo sapiens, UniProt P51692).
T1 sequence (P51692 whole entry): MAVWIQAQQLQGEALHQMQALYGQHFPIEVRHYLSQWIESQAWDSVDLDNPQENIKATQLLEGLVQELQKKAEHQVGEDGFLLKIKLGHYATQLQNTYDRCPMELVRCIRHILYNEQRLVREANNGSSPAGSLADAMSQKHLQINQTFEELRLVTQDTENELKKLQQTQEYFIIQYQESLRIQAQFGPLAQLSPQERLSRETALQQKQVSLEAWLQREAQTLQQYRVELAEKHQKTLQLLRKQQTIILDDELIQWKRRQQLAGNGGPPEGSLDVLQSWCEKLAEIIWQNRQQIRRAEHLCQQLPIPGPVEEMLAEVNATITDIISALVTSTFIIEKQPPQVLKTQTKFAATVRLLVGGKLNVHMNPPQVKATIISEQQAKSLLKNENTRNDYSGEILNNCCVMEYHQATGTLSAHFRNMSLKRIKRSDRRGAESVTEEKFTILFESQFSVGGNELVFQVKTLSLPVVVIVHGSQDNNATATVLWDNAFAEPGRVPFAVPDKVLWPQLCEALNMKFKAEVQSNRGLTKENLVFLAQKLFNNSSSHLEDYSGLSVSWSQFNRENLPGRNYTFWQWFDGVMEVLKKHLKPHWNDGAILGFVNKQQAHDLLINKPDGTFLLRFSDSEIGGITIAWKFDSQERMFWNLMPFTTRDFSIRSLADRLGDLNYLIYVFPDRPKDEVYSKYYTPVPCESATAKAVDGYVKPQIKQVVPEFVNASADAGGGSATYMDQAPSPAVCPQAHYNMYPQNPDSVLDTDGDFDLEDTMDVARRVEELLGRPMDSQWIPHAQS
The experiment in a line: Inhibition of 5-carboxyfluorescein-GpYLVLDKW-OH binding to STAT5B SH2 domain (unknown origin) pre-incubated for 1 hr before fluorescent-labelled peptide addition by fluorescence polarization assay.

Assay [2] addresses Signal transducer and activator of transcription 3 (Mus musculus, UniProt P42227). The assay can be described thus: Inhibition of 5-carboxyfluorescein-GpYLPQTV-NH2 binding to mouse STAT3 (127 to 722 residues) expressed in Escherichia coli Rosetta BL21 DE3 pre-incubated for 1 hr before fluorescent-labelled peptide addition by fluorescence polarization assay. On the technique in general: Polarisation of emitted light reports the rotation of a fluorescent probe.

The target of assay [3] is T2, Signal transducer and activator of transcription 1-alpha/beta (Homo sapiens, UniProt P42224).
T2 sequence (P42224 whole entry): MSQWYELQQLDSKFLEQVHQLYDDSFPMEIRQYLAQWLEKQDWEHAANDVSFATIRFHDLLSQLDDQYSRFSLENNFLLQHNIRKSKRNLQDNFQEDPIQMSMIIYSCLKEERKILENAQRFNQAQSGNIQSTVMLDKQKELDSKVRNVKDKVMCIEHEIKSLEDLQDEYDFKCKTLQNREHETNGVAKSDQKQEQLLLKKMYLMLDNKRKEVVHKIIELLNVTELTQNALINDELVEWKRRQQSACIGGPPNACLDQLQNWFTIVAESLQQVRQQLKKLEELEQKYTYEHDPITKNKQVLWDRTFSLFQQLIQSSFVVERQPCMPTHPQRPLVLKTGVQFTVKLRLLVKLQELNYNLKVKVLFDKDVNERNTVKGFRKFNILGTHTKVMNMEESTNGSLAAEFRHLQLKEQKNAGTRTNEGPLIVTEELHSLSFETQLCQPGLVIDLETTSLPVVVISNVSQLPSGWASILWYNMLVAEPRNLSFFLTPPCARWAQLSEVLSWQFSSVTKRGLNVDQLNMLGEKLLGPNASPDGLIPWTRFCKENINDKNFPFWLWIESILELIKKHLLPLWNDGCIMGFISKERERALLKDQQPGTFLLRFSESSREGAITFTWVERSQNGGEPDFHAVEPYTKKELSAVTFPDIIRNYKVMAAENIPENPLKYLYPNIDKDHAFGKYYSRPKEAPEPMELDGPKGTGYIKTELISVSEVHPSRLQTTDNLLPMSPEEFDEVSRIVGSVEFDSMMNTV
The experiment in a line: Inhibition of 5-carboxyfluorescein-GpYDKPHVL-OH binding to STAT1 (unknown origin) pre-incubated for 1 hr before fluorescent-labelled peptide addition by fluorescence polarization assay.

In assay [4] the target is T3, Signal transducer and activator of transcription 5A (Homo sapiens) (UniProt P42229).
T3 sequence (whole entry): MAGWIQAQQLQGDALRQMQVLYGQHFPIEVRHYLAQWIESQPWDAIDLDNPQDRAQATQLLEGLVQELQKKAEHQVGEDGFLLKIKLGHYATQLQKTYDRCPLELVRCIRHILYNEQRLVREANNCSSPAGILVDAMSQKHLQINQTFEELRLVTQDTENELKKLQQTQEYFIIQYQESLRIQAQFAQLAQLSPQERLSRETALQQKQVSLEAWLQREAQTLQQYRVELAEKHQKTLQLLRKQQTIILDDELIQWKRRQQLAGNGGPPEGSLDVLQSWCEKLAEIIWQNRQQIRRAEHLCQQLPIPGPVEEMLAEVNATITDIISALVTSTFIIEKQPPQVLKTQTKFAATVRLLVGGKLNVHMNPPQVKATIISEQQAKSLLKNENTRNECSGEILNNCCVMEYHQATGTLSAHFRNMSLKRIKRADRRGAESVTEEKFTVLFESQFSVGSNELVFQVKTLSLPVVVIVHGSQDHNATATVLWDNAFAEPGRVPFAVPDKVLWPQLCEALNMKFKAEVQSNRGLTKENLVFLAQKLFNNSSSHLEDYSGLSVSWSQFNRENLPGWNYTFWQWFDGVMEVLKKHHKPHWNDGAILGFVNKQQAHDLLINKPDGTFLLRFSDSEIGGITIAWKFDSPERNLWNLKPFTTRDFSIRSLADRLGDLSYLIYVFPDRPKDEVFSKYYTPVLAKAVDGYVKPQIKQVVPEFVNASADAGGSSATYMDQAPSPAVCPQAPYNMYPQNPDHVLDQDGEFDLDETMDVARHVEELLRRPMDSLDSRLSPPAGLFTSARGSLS
The experiment in a line: Inhibition of 5-carboxyfluorescein-GpYLVLDKW-OH binding to C-terminal 6x-His-tagged and an N-terminal maltose-binding protein-tagged STAT5A SH2 domain (137 to 507 residues) (unknown origin) expressed in Escherichia coli Rosetta BL21 DE3 at 50 uM pre-incubated for 1 hr before fluorescent-labelled peptide addition by fluorescence polarization assay.

The target in assay [5] is T4, Signal transducer and activator of transcription 5A (Homo sapiens, UniProt P42229).
T4 sequence (P42229 whole entry): T3 sequence (whole entry)
The assay can be described thus: Inhibition of 5-carboxyfluorescein-GpYLVLDKW-OH binding to C-terminal 6x-His-tagged and an N-terminal maltose-binding protein-tagged STAT5A SH2 domain (137 to 507 residues) (unknown origin) expressed in Escherichia coli Rosetta BL21 DE3 pre-incubated for 1 hr before fluorescent-labelled peptide addition by fluorescence polarization assay.

Activity calls are given as the source filed them. The rule behind the calls is not given here.

Chain of Signal transducer and activator of transcription 3 (P42227 whole entry, the tested form may be a part): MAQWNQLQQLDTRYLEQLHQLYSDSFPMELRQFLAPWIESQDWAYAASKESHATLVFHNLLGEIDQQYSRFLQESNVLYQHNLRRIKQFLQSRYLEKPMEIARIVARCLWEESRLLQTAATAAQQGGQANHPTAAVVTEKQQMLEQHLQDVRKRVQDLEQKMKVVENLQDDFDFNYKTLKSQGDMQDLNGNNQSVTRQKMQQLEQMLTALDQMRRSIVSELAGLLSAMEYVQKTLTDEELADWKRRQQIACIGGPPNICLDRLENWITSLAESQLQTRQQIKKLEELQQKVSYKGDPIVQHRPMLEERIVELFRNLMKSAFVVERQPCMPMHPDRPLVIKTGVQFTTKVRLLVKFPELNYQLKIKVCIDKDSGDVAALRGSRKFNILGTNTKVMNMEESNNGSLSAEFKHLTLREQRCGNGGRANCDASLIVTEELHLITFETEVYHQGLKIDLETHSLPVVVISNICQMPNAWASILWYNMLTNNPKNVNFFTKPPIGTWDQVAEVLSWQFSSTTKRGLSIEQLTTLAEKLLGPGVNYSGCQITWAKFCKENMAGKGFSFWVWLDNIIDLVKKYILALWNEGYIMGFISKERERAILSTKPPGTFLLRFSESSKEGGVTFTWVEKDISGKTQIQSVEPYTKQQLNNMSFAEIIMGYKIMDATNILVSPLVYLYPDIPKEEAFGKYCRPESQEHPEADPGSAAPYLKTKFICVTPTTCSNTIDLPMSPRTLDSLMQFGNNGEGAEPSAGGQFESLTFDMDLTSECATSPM

With `O=C(Nc1cccc(C(=O)Nc2ccc(S(=O)(=O)O)c3cc(S(=O)(=O)O)cc(S(=O)(=O)O)c23)c1)Nc1cccc(C(=O)Nc2ccc(S(=O)(=O)O)c3cc(S(=O)(=O)O)cc(S(=O)(=O)O)c23)c1`, the IC50 is 12.7 µM in assay [1], more than 100 µM in assay [2], 33.2 µM in assay [3] and 8.8 µM in assay [5]. In assay [4], the inhibition result is “Active”.

In the case of `O=C(Nc1cc(C(=O)Nc2ccc(S(=O)(=O)O)cc2S(=O)(=O)O)cc(C(=O)Nc2ccc(S(=O)(=O)O)cc2S(=O)(=O)O)c1)Nc1cc(C(=O)Nc2ccc(S(=O)(=O)O)cc2S(=O)(=O)O)cc(C(=O)Nc2ccc(S(=O)(=O)O)cc2S(=O)(=O)O)c1`, the IC50 in assay [1] was 2.5 µM; in assay [2], more than 100 µM; in assay [3] it was 7.9 µM; in assay [5] it was 1.4 µM. For the same molecule, in assay [4], the inhibition entry is “Active”.

Take `Cc1ccc(C(=O)Nc2ccc(S(=O)(=O)O)c3cc(S(=O)(=O)O)cc(S(=O)(=O)O)c23)cc1NC(=O)c1cccc(NC(=O)Nc2cccc(C(=O)Nc3cc(C(=O)Nc4ccc(S(=O)(=O)O)c5cc(S(=O)(=O)O)cc(S(=O)(=O)O)c45)ccc3C)c2)c1` [SURAMIN HEXASODIUM]: the IC50 in assay [1] is 10.4 µM; in assay [2] it was more than 100 µM; in assay [3] it was 9.1 µM; in assay [5], 9.4 µM. In addition, the inhibition entry in assay [4] is “Active”.

As a reminder, the IC50 is the midpoint of a concentration-inhibition curve. A low value points to greater potency in that assay.
